The values below come from ChEMBL document CHEMBL4680312 (Bioorg Med Chem, 2021).

Common to all, as to type: cell-based
The target in assay [1] is T1, Histamine H4 receptor (Homo sapiens, UniProt Q9H3N8). The experiment in a line: Displacement of [3H]-Histamine from human histamine 4 receptor transfected in HEK293T cells incubated for 16 hrs by liquid scintillation counter analysis.
In assay [2] the target is T2, Histamine H3 receptor (Homo sapiens, UniProt Q9Y5N1). The experiment in a line: Displacement of [3H]-Histamine from human histamine 3 receptor transfected in HEK293T cells incubated for 16 hrs by liquid scintillation counter analysis.
The target in assay [3] is T1, Histamine H4 receptor. The experiment in a line: Antagonist activity at human histamine 4 receptor transfected in human HEK293T cells assessed as reduction in histamine-induced activity at 10 uM incubated for 30 mins followed by histamine stimulation and measured immediately by BRET assay. Particulars: filed as antagonist.
Assay [4] has as its target T2, Histamine H3 receptor. The experiment in a line: Activation of human histamine 3 receptor transfected in human HEK293T cells at 10 uM measured after 5 mins by BRET assay.
In assay [5] the target is T2, Histamine H3 receptor. The experiment in a line: Antagonist activity at human histamine 3 receptor transfected in human HEK293T cells assessed as reduction in histamine-induced activity at 10 uM incubated for 30 mins followed by histamine stimulation and measured immediately by BRET assay.
For assay [6], the target named is T1, Histamine H4 receptor. The experiment in a line: Activation of human histamine 4 receptor transfected in human HEK293T cells measured after 5 mins by BRET assay. Particulars: filed as partial agonist, dose 0.01-10 µM.

Molecules are shown by their SMILES. The source made the active and inactive calls. No cut-off for these calls is given here.

T1 sequence (Q9H3N8 whole entry): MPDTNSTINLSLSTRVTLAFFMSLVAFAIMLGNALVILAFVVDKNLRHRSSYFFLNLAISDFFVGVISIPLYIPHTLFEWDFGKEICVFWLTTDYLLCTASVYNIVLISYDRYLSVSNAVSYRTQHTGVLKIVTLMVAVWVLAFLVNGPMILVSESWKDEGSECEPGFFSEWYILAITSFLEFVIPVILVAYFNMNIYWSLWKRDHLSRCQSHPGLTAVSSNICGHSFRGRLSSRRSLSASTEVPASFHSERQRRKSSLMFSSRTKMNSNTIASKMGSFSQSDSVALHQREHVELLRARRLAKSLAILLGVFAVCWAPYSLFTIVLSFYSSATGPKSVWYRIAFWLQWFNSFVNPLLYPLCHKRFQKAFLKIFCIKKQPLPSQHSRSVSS
T2 sequence (Q9Y5N1 whole entry): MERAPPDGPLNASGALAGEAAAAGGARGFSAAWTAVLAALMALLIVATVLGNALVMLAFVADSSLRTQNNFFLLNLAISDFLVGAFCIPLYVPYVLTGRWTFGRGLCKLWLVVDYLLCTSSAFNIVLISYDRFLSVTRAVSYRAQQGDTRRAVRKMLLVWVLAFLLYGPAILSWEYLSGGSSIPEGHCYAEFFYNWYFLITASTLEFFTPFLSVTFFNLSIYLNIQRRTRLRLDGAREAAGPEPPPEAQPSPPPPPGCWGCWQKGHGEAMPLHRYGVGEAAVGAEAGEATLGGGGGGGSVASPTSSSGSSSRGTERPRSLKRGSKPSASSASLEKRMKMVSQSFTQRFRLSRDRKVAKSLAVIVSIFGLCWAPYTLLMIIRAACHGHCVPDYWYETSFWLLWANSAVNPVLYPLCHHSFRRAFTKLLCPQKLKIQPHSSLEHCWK

For `C=CCN1CCN(CC2Cc3ccccc3O2)CC1` (stereo unspecified), the Ki on Histamine H4 receptor [1] is > 10 µM.

With `CN1CCN(CC2Cc3cc(Cl)ccc3O2)CC1` (stereo unspecified), the Ki at Histamine H3 receptor [2] and on Histamine H4 receptor [1] was 0.794 µM in each case.

Take `CN1CCN(C(=O)c2nc3ccc(Cl)cc3[nH]2)CC1`: the result on Histamine H4 receptor [3] was Active.

On to `CC(C)(C)c1ccc2c(c1)CC(CN1CCN(c3ccccc3)CC1)O2` (stereo unspecified), for which the outcome on Histamine H3 receptor [4] and at Histamine H3 receptor [5] was inactive. In addition, the Ki at Histamine H3 receptor [2] and at Histamine H4 receptor [1] was > 10 µM each time.

For `CN1CCN(Cc2cc3ccccc3o2)CC1`, the Ki on Histamine H3 receptor [2] and on Histamine H4 receptor [1] was > 10 µM each time.

Turning to `c1ccc(-c2ccc3c(c2)CC(CN2CCN(c4ccccc4)CC2)O3)cc1` (stereo unspecified), the Ki at Histamine H3 receptor [2] and on Histamine H4 receptor [1] was > 10 µM throughout.

For `O=C(c1cc2ccccc2o1)N1CCN(c2ccccc2)CC1`, the Ki on Histamine H3 receptor [2] and at Histamine H4 receptor [1] was > 10 µM throughout.

`CN1CCN(C(=O)c2cc3ccccc3o2)CC1`: on Histamine H4 receptor [3], the outcome was Active. Also, the Ki is > 10 µM on Histamine H3 receptor [2] and 0.0794 µM at Histamine H4 receptor [1]. At Histamine H4 receptor [6], the Activity entry was “Dose-dependent effect”.

For `C=CCN1CCN(CC2Cc3cc(C(C)(C)C)ccc3O2)CC1` (stereo unspecified), on Histamine H3 receptor [4], the result was inactive. In addition, the result at Histamine H3 receptor [5] (filed as antagonist) was Active. Moreover, the Ki is 0.0158 µM on Histamine H3 receptor [2] and > 10 µM on Histamine H4 receptor [1].

On to `CN1CCN(Cc2ccc3c(c2)CCO3)CC1`, for which the Ki at Histamine H3 receptor [2] and on Histamine H4 receptor [1] was > 10 µM throughout.

As to `c1ccc(-c2ccc3c(c2)CC(CN2CCNCC2)O3)cc1` (stereo unspecified), the outcome at Histamine H3 receptor [4] and at Histamine H3 receptor [5] was inactive. The Ki on Histamine H3 receptor [2] is 0.631 µM; at Histamine H4 receptor [1] it was > 10 µM.

As to `CN1CCN(CC2Cc3cc(-c4ccccc4)ccc3O2)CC1` (stereo unspecified), the result on Histamine H3 receptor [4] was inactive. Also, the result at Histamine H3 receptor [5] (filed as antagonist) was Active. Further, the Ki was 0.0398 µM on Histamine H3 receptor [2] and > 10 µM at Histamine H4 receptor [1].

`CN1CCN(CC2Cc3cc(C(C)(C)C)ccc3O2)CC1` (stereo unspecified): the figures for the Ki at Histamine H3 receptor [2] and on Histamine H4 receptor [1] were 0.794 µM and > 10 µM, respectively.

On to `C=CCN1CCN(CC2Cc3cc(-c4ccccc4)ccc3O2)CC1` (stereo unspecified), for which the outcome on Histamine H3 receptor [4] was inactive. For the same compound, the outcome on Histamine H3 receptor [5] (filed as antagonist) was Active. Besides, the results for the Ki at Histamine H3 receptor [2] and on Histamine H4 receptor [1] were 0.00398 µM and > 10 µM, respectively.

As for `COc1ccc2c(c1)CC(CN1CCN(C)CC1)O2` (stereo unspecified), the results for the Ki at Histamine H3 receptor [2] and at Histamine H4 receptor [1] were 0.794 µM and > 10 µM, respectively.

Regarding `c1ccc(CN2CCN(CC3Cc4ccccc4O3)CC2)cc1` (stereo unspecified), the Ki at Histamine H3 receptor [2] and on Histamine H4 receptor [1] was > 10 µM throughout.

Turning to `C=CCN1CCN(CC2Cc3cc(OC)ccc3O2)CC1` (stereo unspecified), the outcome at Histamine H3 receptor [4] was inactive. For the same compound, the result at Histamine H3 receptor [5] (filed as antagonist) was Active. In addition, the Ki on Histamine H3 receptor [2] was 0.00631 µM; on Histamine H4 receptor [1], > 10 µM.
